Test results: US20240182481A1 (Tango Therapeutics, Inc., priority 2021, published 2024)
Where two headings read alike, the source gives them in different places.

How the values were obtained:
[1] = tested on: MDA-MB-436 (BRCA1 mutant) cell line; assay: Viability assay in BRCA1 mutant cell line MDA-MB-436; format: cell-based; conditions: BRCA1 mutant MDA-MB-436, read-out: MDA-MB-436 rel IC50
Description: (§1) Table 1 also indicates IC50 values in a viability assay for a non-isogenic pair of BRCA1 mutant (column 5—MDA-MB-436) and BRCA1 WT (column 6—HCC1954) cell lines. These values indicate the effect of treatment with compound on cell survival.

[2] = tested on: HCC1954 (BRCA1 WT) cell line; assay: Viability assay in BRCA1 WT cell line HCC1954; format: cell-based; conditions: Homo sapiens, read-out: HCC 1954 IC50 rel IC50
Description: as §1

monoubiquitinated PCNA = assay: AlphaLISA assay measuring monoubiquitinated PCNA in MDA-MB-436; format: cell-based; conditions: read-out: Alpha LISA IC50
Description: Table 1 also indicates IC50 values for exemplary compounds in an AlphaLISA assay measuring monoubiquitinated PCNA in a BRCA1 mutant cell line (MDA-MB-436; column 7).

USP1-UAF1 = USP1-UAF1 (Homo sapiens, UniProt O94782); assay: Ubiquitin Rhodamine assay for USP1-UAF1 activity; format: biochemical
Chain of USP1-UAF1 (O94782 whole entry): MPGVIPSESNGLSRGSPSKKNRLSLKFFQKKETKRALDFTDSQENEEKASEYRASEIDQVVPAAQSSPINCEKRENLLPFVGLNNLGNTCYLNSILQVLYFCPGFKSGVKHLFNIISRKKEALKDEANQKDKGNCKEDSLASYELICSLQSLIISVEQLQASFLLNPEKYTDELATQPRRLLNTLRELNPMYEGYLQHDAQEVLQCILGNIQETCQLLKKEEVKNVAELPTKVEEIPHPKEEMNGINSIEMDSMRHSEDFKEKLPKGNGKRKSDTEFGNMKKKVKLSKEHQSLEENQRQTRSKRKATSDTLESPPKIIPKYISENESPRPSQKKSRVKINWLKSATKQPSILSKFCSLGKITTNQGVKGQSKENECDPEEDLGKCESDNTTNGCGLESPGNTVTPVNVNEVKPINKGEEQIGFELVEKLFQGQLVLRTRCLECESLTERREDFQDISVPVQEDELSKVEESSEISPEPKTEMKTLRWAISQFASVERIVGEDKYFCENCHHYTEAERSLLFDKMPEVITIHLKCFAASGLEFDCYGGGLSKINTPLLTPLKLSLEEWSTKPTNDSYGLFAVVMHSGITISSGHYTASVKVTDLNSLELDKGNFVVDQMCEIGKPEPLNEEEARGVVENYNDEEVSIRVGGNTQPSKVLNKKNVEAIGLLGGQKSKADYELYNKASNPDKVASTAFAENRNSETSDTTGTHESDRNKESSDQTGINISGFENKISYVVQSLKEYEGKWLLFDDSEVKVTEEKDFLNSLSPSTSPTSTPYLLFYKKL
Chain of USP1-UAF1 (Q8TAF3 whole entry partner): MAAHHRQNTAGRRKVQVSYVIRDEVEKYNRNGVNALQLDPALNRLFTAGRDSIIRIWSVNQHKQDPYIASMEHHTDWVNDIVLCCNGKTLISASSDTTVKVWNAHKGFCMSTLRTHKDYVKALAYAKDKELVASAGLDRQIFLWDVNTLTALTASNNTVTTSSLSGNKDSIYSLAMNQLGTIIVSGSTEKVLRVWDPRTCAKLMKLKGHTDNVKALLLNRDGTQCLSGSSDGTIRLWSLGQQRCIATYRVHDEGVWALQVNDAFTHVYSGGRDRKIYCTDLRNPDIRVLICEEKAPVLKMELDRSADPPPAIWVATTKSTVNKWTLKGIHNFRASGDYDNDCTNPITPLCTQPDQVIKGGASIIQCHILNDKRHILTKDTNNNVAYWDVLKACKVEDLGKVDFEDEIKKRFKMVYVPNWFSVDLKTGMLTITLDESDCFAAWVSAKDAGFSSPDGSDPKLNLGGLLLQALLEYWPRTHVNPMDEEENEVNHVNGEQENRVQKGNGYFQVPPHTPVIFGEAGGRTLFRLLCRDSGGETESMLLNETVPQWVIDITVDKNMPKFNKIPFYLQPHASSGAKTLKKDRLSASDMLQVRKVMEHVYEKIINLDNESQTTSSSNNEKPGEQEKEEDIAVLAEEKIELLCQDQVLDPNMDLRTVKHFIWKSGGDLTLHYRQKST
Procedure: Certain compounds of the disclosure were assessed for USP1-UAF1 activity in a Ubiquitin Rhodamine assay as described in Example 135.

[3] = Homo sapiens, MDA-MB-436, viability

Structure (SMILES) | IC50 [1, 3] [nM] | IC50 [2] [nM] | IC50 (monoubiquitinated PCNA; Homo sapiens) [nM] | IC50 (USP1-UAF1) [nM] | IC50 ([1]; viability) [nM] | IC50 (monoubiquitinated PCNA) [nM]
Cn1cc(C(F)(F)F)nc1-c1ccc(Cc2c[nH]c3cnc(-c4c(C(F)(F)F)cnn4C)nc23)cc1 [Compound 179, 7-[[4-[1-methyl-4-(trifluoromethyl)imidazol-2-yl]phenyl]methyl]-2-[2-methyl-4-(trifluoromethyl)pyrazol-3-yl]-5H-pyrrolo[3,2-d]pyrimidine] | < 100 | 250 to 10000 | < 100 | – | – | –
COc1ncnc(C2CC2)c1-c1ncc2[nH]cc([C@@](C)(O)c3ccc(-c4nc(C(F)(F)F)cn4C)cc3)c2n1 (single isomer, unassigned) [Compound 4] | – | – | – | 30 to 100 | 100 to 250 | 100 to 250
CC(C)c1ccccc1-c1ncc2[nH]cc(CN3CCC(c4nc(C(F)(F)F)cn4C)CC3)c2n1 [Compound 6, 2-(2-isopropylphenyl)-7-[[4-[1-methyl-4-(trifluoromethyl)imidazol-2-yl]-1-piperidyl]methyl]-5H-pyrrolo[3,2-d]pyrimidine] | 250 to 10000 | ≥ 10000 | – | 100 to 10000 | – | –
CCn1c(C(F)(F)F)cnc1-c1ccc(C(O)c2c[nH]c3cnc(-c4c(OC)ncnc4C4CC4)nc23)cc1 (centres unmarked) [Compound 75] | ≥ 10000 | ≥ 10000 | – | ≥ 10000 | – | –
COc1ncnc(C2CC2)c1-c1ncc2[nH]nc(Cc3ccc(-c4nc(C(F)(F)F)cn4C)cc3)c2n1 [Compound 5, 5-(4-cyclopropyl-6-methoxy-pyrimidin-5-yl)-3-[[4-[1-methyl-4-(trifluoromethyl)imidazol-2-yl]phenyl]methyl]-1H-pyrazolo[4,3-d]pyrimidine] | < 100 | – | < 100 | < 30 | – | –
Cn1cc(C(F)(F)F)nc1-c1ccc(Cc2c[nH]c3cnc(-c4ccccc4CO)nc23)cc1 [Compound 72] | 250 to 10000 | ≥ 10000 | – | 100 to 10000 | – | –
COc1ncnc(C2CC2)c1-c1ncc2c(n1)c(Cc1ccc(-c3nc(C(F)(F)F)cn3C)cc1)nn2C [Compound 26, 5-(4-cyclopropyl-6-methoxy-pyrimidin-5-yl)-1-methyl-3-[[4-[1-methyl-4-(trifluoromethyl)imidazol-2-yl]phenyl]methyl]pyrazolo[4,3-d]pyrimidine] | < 100 | ≥ 10000 | < 100 | – | – | –
Cn1cc(C(F)(F)F)nc1-c1ccc(Cc2c[nH]c3cnc(-c4c(OC5CC5)ncnc4C4CC4)nc23)cc1 [Compound 155] | < 100 | ≥ 10000 | – | < 30 | – | –
COc1ncnc(C2CC2)c1-c1ncc2[nH]cc(C(O)c3ccc(-c4nc(C(F)(F)F)cn4C)cc3)c2n1 (centres unmarked) [Compound 49, [2-(4-cyclopropyl-6-methoxy-pyrimidin-5-yl)-5H-pyrrolo[3,2-d]pyrimidin-7-yl]-[4-[1-methyl-4-(trifluoromethyl)imidazol-2-yl]phenyl]methanol] | 250 to 10000 | ≥ 10000 | – | 100 to 10000 | – | –
Cn1cc(C(F)(F)F)nc1-c1ccc(C(O)c2c[nH]c3cnc(-c4cccnc4C4CC4)cc23)cc1 (centres unmarked) [Compound 30, [5-(2-cyclopropylpyridin-3-yl)-1H-pyrrolo[2,3-c]pyridin-3-yl]([4-[1-methyl-4-(trifluoromethyl)imidazol-2-yl]phenyl])methanol] | ≥ 10000 | ≥ 10000 | – | 100 to 10000 | – | –
Cn1cc(C(F)(F)F)nc1-c1ccc(Cc2c[nH]c3cnc(-c4cccnc4NC4CC4)nc23)cc1 [Compound 44] | 250 to 10000 | 250 to 10000 | – | 100 to 10000 | – | –
CNc1ncccc1-c1ncc2[nH]cc(Cc3ccc(-c4nc(C(F)(F)F)cn4C)cc3)c2n1 [Compound 58, N-methyl-3-[7-[[4-[1-methyl-4-(trifluoromethyl)imidazol-2-yl]phenyl]methyl]-5H-pyrrolo[3,2-d]pyrimidin-2-yl]pyridin-2-amine] | 250 to 10000 | 250 to 10000 | – | 100 to 10000 | – | –
COc1ncnc(C2CC2)c1-c1ncc2[nH]cc([C@@](C)(O)c3ccc(-c4nc(C(F)(F)F)cn4C)cc3)c2n1 (single isomer, unassigned) [Compound 76] | – | – | 100 to 250 | 100 to 10000 | 250 to 10000 | –
Cn1cc(C(F)(F)F)nc1-c1ccc(C(=O)c2c[nH]c3cnc(-c4cccnc4C4CC4)cc23)cc1 [Compound 53] | ≥ 10000 | ≥ 10000 | – | ≥ 10000 | – | –
CN(c1ccc(-c2nc(C(F)(F)F)cn2C)cc1)c1c[nH]c2cnc(-c3ccccc3C3CC3)nc12 [Compound 13, 2-(2-cyclopropylphenyl)-N-methyl-N-[4-[1-methyl-4-(trifluoromethyl)imidazol-2-yl]phenyl]-5H-pyrrolo[3,2-d]pyrimidin-7-amine] | 250 to 10000 | ≥ 10000 | – | 100 to 10000 | – | –
COc1ncnc(C2CC2)c1-c1nc(Cl)c2[nH]cc(Cc3ccc(-c4nc(C(F)(F)F)cn4C)cc3)c2n1 [Compound 187, 4-chloro-2-(4-cyclopropyl-6-methoxy-pyrimidin-5-yl)-7-[[4-[1-methyl-4-(trifluoromethyl)imidazol-2-yl]phenyl]methyl]-5H-pyrrolo[3,2-d]pyrimidine] | < 100 | 250 to 10000 | – | < 30 | – | –

Structure (SMILES) | IC50 [1, 3] [nM] | IC50 [2] [nM] | IC50 (monoubiquitinated PCNA; Homo sapiens) [nM] | IC50 (USP1-UAF1) [nM] | IC50 ([1]; viability) [nM] | IC50 (monoubiquitinated PCNA) [nM]
Cn1cc(C(F)(F)F)nc1-c1ccc(Cc2c[nH]c3cnc(-c4cccnc4N4CCC45COC5)nc23)cc1 [Compound 77] | 250 to 10000 | ≥ 10000 | – | 100 to 10000 | – | –
CN(C)Cc1ccccc1-c1ncc2[nH]cc(Cc3ccc(-c4nc(C(F)(F)F)cn4C)cc3)c2n1 [Compound 9] | ≥ 10000 | ≥ 10000 | – | ≥ 10000 | – | –
COc1ncnc(C2CC2)c1-c1ncc2nn(C)c(Cc3ccc(-c4nc(C(F)(F)F)cn4C)cc3)c2n1 [Compound 24, 5-(4-cyclopropyl-6-methoxy-pyrimidin-5-yl)-2-methyl-3-[[4-[1-methyl-4-(trifluoromethyl)imidazol-2-yl]phenyl]methyl]pyrazolo[4,3-d]pyrimidine] | 250 to 10000 | ≥ 10000 | 100 to 250 | – | – | –
CN1CC(n2cc(C(F)(F)F)nc2-c2ccc(C(O)c3c[nH]c4cnc(-c5cccnc5OC(F)F)nc34)cc2)C1 (centres unmarked) [Compound 38, [2-[2-(difluoromethoxy)-3-pyridyl]-5H-pyrrolo[3,2-d]pyrimidin-7-yl]-[4-[1-(1-methylazetidin-3-yl)-4-(trifluoromethyl)imidazol-2-yl]phenyl]methanol] | ≥ 10000 | ≥ 10000 | – | ≥ 10000 | – | –
Cn1cc(C(F)(F)F)nc1-c1ccc(Nc2c[nH]c3cnc(-c4cccnc4C4CC4)nc23)cc1 [Compound 43, 2-(2-cyclopropyl-3-pyridyl)-N-[4-[1-methyl-4-(trifluoromethyl)imidazol-2-yl]phenyl]-5H-pyrrolo[3,2-d]pyrimidin-7-amine] | ≥ 10000 | ≥ 10000 | – | 100 to 10000 | – | –
Cn1cc(C(F)(F)F)nc1-c1ccc(C(O)c2c[nH]c3cnc(-c4cccnc4C4CC4)nc23)cc1 (centres unmarked) [Compound 40] | 250 to 10000 | ≥ 10000 | – | 100 to 10000 | – | –
COc1ncnc(C2CC2)c1-c1ncc2[nH]cc(C(C)c3ccc(-c4nc(C(F)(F)F)cn4C)cc3)c2n1 (centres unmarked) [Compound 128] | < 100 | ≥ 10000 | – | < 30 | – | –
CN(C)Cc1ccccc1-c1ncc2[nH]cc(C(O)c3ccc(-c4nc(C(F)(F)F)cn4C)cc3)c2n1 (centres unmarked) [Compound 3] | ≥ 10000 | ≥ 10000 | – | ≥ 10000 | – | –
CC(C)c1ccccc1-c1ncc2[nH]cc(C(=O)c3ccc(-c4nc(C(F)(F)F)cn4C)cc3)c2n1 [Compound 86, [2-(2-isopropylphenyl)-5H-pyrrolo[3,2-d]pyrimidin-7-yl]-[4-[1-methyl-4-(trifluoromethyl)imidazol-2-yl]phenyl]methanone] | 250 to 10000 | 250 to 10000 | – | ≥ 10000 | – | –
COc1ncnc(C2CC2)c1-c1ncc2c(n1)c(Cc1ccc(-c3nc(C(F)(F)F)cn3C)cc1)cn2C [Compound 39, 2-(4-cyclopropyl-6-methoxy-pyrimidin-5-yl)-5-methyl-7-[[4-[1-methyl-4-(trifluoromethyl)imidazol-2-yl]phenyl]methyl]pyrrolo[3,2-d]pyrimidine] | < 100 | ≥ 10000 | – | < 30 | – | –
Cn1cc(C(F)(F)F)nc1-c1ccc(Cc2c[nH]c3cnc(-c4c(OCF)ncnc4C4CC4)nc23)cc1 [Compound 173, 2-[4-cyclopropyl-6-(fluoromethoxy)pyrimidin-5-yl]-7-[[4-[1-methyl-4-(trifluoromethyl)imidazol-2-yl]phenyl]methyl]-5H-pyrrolo[3,2-d]pyrimidine] | < 100 | ≥ 10000 | – | < 30 | – | –
COc1ncnc(C2CC2)c1-c1ncc2[nH]cc(Cc3ccc(-c4nc(C(F)(F)F)cn4C(C)C)cc3)c2n1 [Compound 54, 2-(4-cyclopropyl-6-methoxy-pyrimidin-5-yl)-7-[[4-[1-isopropyl-4-(trifluoromethyl)imidazol-2-yl]phenyl]methyl]-5H-pyrrolo[3,2-d]pyrimidine] | < 100 | – | < 100 | < 30 | – | –
COc1ncnc(C2CC2)c1-c1ncc2c(n1)c(Cc1ccc(-c3nc(C(F)(F)F)cn3C3CC3)cc1)cn2C [Compound 25] | – | – | < 100 | < 30 | – | –
Cn1cc(C(F)(F)F)nc1-c1ccc(Cc2c[nH]c3cnc(-c4cccnc4N4CCC45CCOC5)nc23)cc1 (centres unmarked) [Compound 32] | 250 to 10000 | 250 to 10000 | – | 100 to 10000 | – | –
Cn1cc(C(F)(F)F)nc1-c1ccc(C(C)(O)c2c[nH]c3cnc(-c4cccnc4OCC(F)(F)F)nc23)cc1 (single isomer, unassigned) [Compound 22] | 100 to 250 | 250 to 10000 | – | 100 to 10000 | – | –
